Columns and labels:
Experiment in all cases: Herbicidal efficacy, % weed control
Format in all cases: in vivo
Cenchrus echinatus = settings: 35 days after administration
From the text: (§1) This effectiveness of all treatments can be evaluated according to Colby's equation. In the Colby's equation given below, E is the expected efficacy of combination of Propisochlor and another herbicide, X is the observed efficacy of Propisochlor and Y is the observed efficacy of other herbicide. Observed efficacy values i.e. X and Y are % weed control for Propisochlor and another herbicide. If observed efficacy of combination of Propisochlor and other herbicide is greater than its expected efficacy, then combination is determined to be synergistic. If observed efficacy is equal to or less than expected efficacy, then combination is determined to be non-synergistic.
(§2) Experiments were carried out to evaluate the efficacy of combinations of present invention.
(§3) Herbicidal activity of synergistic mixtures of the combinations of present invention is represented in below tables.

Ipomoea grandifolia = system: Ipomoea grandifolia
From the text: as §1, §2, §3

Brachiaria decumbens = settings: 35 days after administration
From the text: as §1, §2, §3

Commelina benghalensis = settings: 35 days after administration
From the text: as §1, §2, §3

Brachiaria plantaginea = settings: 35 days after administration, Table 1
From the text: as §1, §2, §3

Eleusine indica = settings: 35 days after administration, Table 2
From the text: as §1, §2, §3

Ipomoea hederifolia = settings: 35 days after administration, Table 2
From the text: as §1, §2, §3

Spermacoce verticillata = settings: 35 days after administration, Table 2
From the text: as §1, §2, §3

## CCOC(=O)[C@@H](C)Oc1ccc(Oc2cnc3cc(Cl)ccc3n2)cc1 [Quizalafop-p-ethyl]
Cenchrus echinatus; 87.5 g ai/ha, Table 5
  % Weed control Cenchrus echinatus: 77.5%

## CCCN(CCC)c1c([N+](=O)[O-])cc(C(F)(F)F)cc1[N+](=O)[O-] [Trifluralin]
Ipomoea grandifolia; 300 g ai/ha, 35 days after administration, Table 11
  % Weed control Ipomoea grandifolia: 0.0%

## CCSC(C)CC1CC(=O)C(/C(CC)=N/OC/C=C/Cl)=C(O)C1 (stereo not drawn) [Clethodim]
Cenchrus echinatus; 120 g ai/ha, Table 4
  % Weed control Cenchrus echinatus: 0.0%

## CN(C)c1nc(=O)n(C2CCCCC2)c(=O)n1C [Hexazinone]
Brachiaria decumbens; 125 g ai/ha, Table 6
  % Weed control Brachiaria decumbens: 11.3%
Commelina benghalensis; 125 g ai/ha, Table 6
  % Weed control Commelina benghalensis: 45.0%

## CNC(=O)N(C)c1nnc(C(C)(C)C)s1 [Tebuthiuron]
Commelina benghalensis; 400 g ai/ha, Table 10
  % Weed control Commelina benghalensis: 0.0%
Ipomoea grandifolia; 400 g ai/ha, 35 days after administration, Table 10
  % Weed control Ipomoea grandifolia: 12.5%

## C#CCN1C(=O)COc2cc(F)c(N3C(=O)C4=C(CCCC4)C3=O)cc21 [Flumioxazin]
Brachiaria decumbens; 50 g ai/ha, Table 1
  % Weed control Brachiaria decumbens: 63.75%
Brachiaria plantaginea; 50 g ai/ha
  % Weed control Brachiaria plantaginea: 53.75%
Commelina benghalensis; 50 g ai/ha, Table 1
  % Weed control Commelina benghalensis: 90.25%

## CCc1cccc(C)c1N(COC(C)C)C(=O)CCl [Propisochlor]
Brachiaria decumbens; 540 g ai/ha, Table 9
  % Weed control Brachiaria decumbens: 68.8%
Brachiaria decumbens; 1080 g ai/ha, Table 3
  % Weed control Brachiaria decumbens: 92.0%
Brachiaria decumbens; 1080 g ai/ha, Table 6
  % Weed control Brachiaria decumbens: 75.0%
Brachiaria decumbens; 1200 g ai/ha, Table 1
  % Weed control Brachiaria decumbens: 85.75%
Brachiaria plantaginea; 1200 g ai/ha
  % Weed control Brachiaria plantaginea: 84.50%
Cenchrus echinatus; 540 g ai/ha, Table 4
  % Weed control Cenchrus echinatus: 71.3%
Cenchrus echinatus; 540 g ai/ha, Table 5
  % Weed control Cenchrus echinatus: 71.3%
Cenchrus echinatus; 540 g ai/ha, Table 9
  % Weed control Cenchrus echinatus: 91.8%
Cenchrus echinatus; 1080 g ai/ha, Table 4
  % Weed control Cenchrus echinatus: 88.8%
Cenchrus echinatus; 1080 g ai/ha, Table 5
  % Weed control Cenchrus echinatus: 88.8%
Commelina benghalensis; 1080 g ai/ha, Table 6
  % Weed control Commelina benghalensis: 90.8%
Commelina benghalensis; 1080 g ai/ha, Table 8
  % Weed control Commelina benghalensis: 90.8%
Commelina benghalensis; 1080 g ai/ha, Table 10
  % Weed control Commelina benghalensis: 90.8%
Commelina benghalensis; 1200 g ai/ha, Table 1
  % Weed control Commelina benghalensis: 92.00%
Eleusine indica; 525 g ai/ha
  % Weed control Eleusine indica: 99.75%
Eleusine indica; 675 g ai/ha
  % Weed control Eleusine indica: 100.00%
Ipomoea grandifolia; 540 g ai/ha, 21 days after administration, Table 7
  % Weed control Ipomoea grandifolia: 7.5%
Ipomoea grandifolia; 540 g ai/ha, 35 days after administration, Table 9
  % Weed control Ipomoea grandifolia: 0.0%
Ipomoea grandifolia; 540 g ai/ha, 35 days after administration, Table 11
  % Weed control Ipomoea grandifolia: 53.8%
Ipomoea grandifolia; 1080 g ai/ha, 21 days after administration, Table 7
  % Weed control Ipomoea grandifolia: 22.5%
Ipomoea grandifolia; 1080 g ai/ha, 35 days after administration, Table 10
  % Weed control Ipomoea grandifolia: 45.0%
Ipomoea grandifolia; 1080 g ai/ha, 35 days after administration, Table 11
  % Weed control Ipomoea grandifolia: 55.50%
Ipomoea hederifolia; 525 g ai/ha
  % Weed control Ipomoea hederifolia: 26.25%
Ipomoea hederifolia; 675 g ai/ha
  % Weed control Ipomoea hederifolia: 27%
Spermacoce verticillata; 525 g ai/ha
  % Weed control Spermacoce verticillata: 92.75%
Spermacoce verticillata; 675 g ai/ha
  % Weed control Spermacoce verticillata: 95.75%

## Cc1nn(-c2cc(NS(C)(=O)=O)c(Cl)cc2Cl)c(=O)n1C(F)F [Sulfentrazone]
Eleusine indica; 75 g ai/ha
  % Weed control Eleusine indica: 90.00%
Ipomoea hederifolia; 75 g ai/ha
  % Weed control Ipomoea hederifolia: 98.00%
Spermacoce verticillata; 75 g ai/ha
  % Weed control Spermacoce verticillata: 92.25%

## CN(C)C(=O)Nc1ccc(Cl)c(Cl)c1 [Diuron]
Brachiaria decumbens; 1000 g ai/ha, Table 9
  % Weed control Brachiaria decumbens: 3.8%
Brachiaria decumbens; 2000 g ai/ha, Table 9
  % Weed control Brachiaria decumbens: 12.5%
Cenchrus echinatus; 1000 g ai/ha, Table 9
  % Weed control Cenchrus echinatus: 5.0%
Cenchrus echinatus; 2000 g ai/ha, Table 9
  % Weed control Cenchrus echinatus: 1.3%
Commelina benghalensis; 500 g ai/ha, Table 8
  % Weed control Commelina benghalensis: 0%
Ipomoea grandifolia; 500 g ai/ha, 21 days after administration, Table 7
  % Weed control Ipomoea grandifolia: 0.0%
Ipomoea grandifolia; 1000 g ai/ha, 35 days after administration, Table 9
  % Weed control Ipomoea grandifolia: 0.0%
Ipomoea grandifolia; 2000 g ai/ha, 35 days after administration, Table 9
  % Weed control Ipomoea grandifolia: 0.0%

## COC(=O)[C@@H](C)Oc1ccc(Oc2ncc(C(F)(F)F)cc2Cl)cc1 [Haloxyfop-p-methyl]
Brachiaria decumbens; 62.1 g ai/ha, Table 3
  % Weed control Brachiaria decumbens: 11.3%
